Experimental data taken from patent publication US20260242874A1, “METHOD OF PREDICTING RESPONSE TO TREATMENT” (LINNANE PHARMA AB, priority 2023, published 2026).

How the values were obtained:
[1] = tested on: non-muscle invasive bladder cancer tumors; assay: Tumor histopathology of biopsies; format: in vivo, human; settings: treated tumors compared to the placebo group
Description: The tumor response was further evaluated by histopathology. […] A complete response was confirmed by a lack of tumor tissue in the control biopsy or presence of minor residual tissue stroma without tumor cells. In the partial responders, fragmentation and cell shedding left few intact papilli and the tissue surface appeared denuded. In addition, tumor tissue surrounding the target lesion was affected in the responding patients, including satellite tumors, which had disappeared.
Tumor biopsies, collected at the time of surgery were evaluated by histopathology, using established parameters for scoring of Grade and Stage/Invasiveness. Tissue samples were analyzed by a designated study uro-pathologist. Both grading classifications (WHO 1973 and 2004/2016) were used. Biopsies from healthy tissue areas distant from the tumor were collected for comparison.

bladder tumor cells = assay: Cell shedding into urine after intravesical instillation; format: in vivo, human
Procedure: Intravesical alpha1-oleate instillations triggered a rapid tumor response, which was quantified by comparing the pre-instillation sample in each patient to the first urine sample obtained post instillation (≤2 hours).
To quantify the shedding of cells and cell clusters into the urine, samples were obtained from each patient prior to and after each instillation of alpha1-oleate or placebo (Visit 1-Visit 6). Cell shedding was quantified by counting the total number of epithelial cells in a unit of uncentrifuged urine under light microscopy, using a hemocytometer chamber. Changes in cell shedding were quantified at each visit, by comparing cell numbers in samples obtained before and after each instillation. The cell clusters were scored based on the examination of these samples by an experienced pathologist on a range of 0-2 where 0=no clusters and 2=the highest number of clusters.

shed bladder tumor cells = assay: DNA strand breaks by TUNEL staining of shed cells; format: in vivo, human; settings: shed cells post-instillation vs pre-instillation, all treated patients
Procedure: Double strand DNA breaks were quantified by TUNEL staining, comparing shed cells post alpha1-oleate instillation, to the pre-instillation samples.
DNA fragmentation was detected using the terminal deoxynucleotidyl transferase dUTP nick end-labelling (TUNEL) assay (Click-iT TUNEL Alexa Fluor 488 imaging assay kit, ThermoFisher). Tissue sections were de-paraffinized with xylene followed by serial dehydration with ethanol (100, 95, 75 and 50%). Dehydrated sections were fixed (4% PFA, 15 min), permeabilized (DNase-free Protease K solution 20 μg/mL, 15 min) and incubated with TUNEL reaction mixture containing TdT for 60 min at 37° C. After the TUNEL reaction, sections were incubated with Click-iT reaction mixture (30 min, 37° C.). Sections were counterstained with DAPI (1 μg/mL, 5 minutes), mounted in Fluoromount aqueous mounting media, and analyzed by fluorescence microscopy (Zeiss). Fluorescence intensities were quantified by ImageJ and net mean fluorescence intensity calculated after subtraction of background fluorescence.

[2] = tested on: cancer related genes in bladder tumors; assay: Gene expression analysis (RNA sequencing) of tumors; format: in vivo, human
Description: The tumor response was characterized in greater detail by sequencing of RNA extracted from tumor tissue obtained at TURB and from biopsies obtained from adjacent tissue with a healthy appearance.
Individual tumors in patients treated with alpha1-oleate were defined as complete responders (CR), if the tumor was removed, partial responders (PR) if the tumor size was reduced, stable disease if the tumor size was unchanged (SD) or as non-responders, if the tumor size increased (Cut off=25% change in tumor size) (FIG. 1a). The effects of alpha1-oleate on gene expression were further examined for individual patients and tumors, using […], and differences were detected relative to the clinical treatment response of each tumor. By Principal component analysis (PCA FIG. 1b) the majority of responding tumors formed a cluster with a similar overall gene expression profile.
RNA was extracted from tissues stabilized in RNAlater using the AllPrep DNA/RNA/miRNA Universal Kit. Disruption was in the TissueLyser system and CK28 Precellys tubes and by homogenization in the QIAshredder homogenizer. The quantity and quality of the RNA samples were evaluated using NanoDrop and Agilent 2100 Bioanalyzer. RNA samples were prepared by Illumina TruSeq Stranded mRNA Library Prep Kit (20020594), and libraries were multiplexed and sequenced using NextSeq 500/550 High Output Kits (v2.5 2×75 Cycles) with an average of 22 million reads per sample. Raw sequencing data was demultiplexed using bcl2fastq (version 2.18) and RSEM (1.3) was used for abundance estimation using the human genome release 37/Ensemble 75. Samples were thoroughly QCed and visualized using dimensionality reduction (i.e PCA), MA-plots as well as RNA-seq intrinsic biases (such as GC bias, transcriptome complexity and alignment quality). Differential expression analysis was performed using R (version 3.4) and the packages limma and DESeq2. Fold change were calculated by comparing tumors in the treated to the placebo group. Relative expression levels were analyzed and genes with an absolute fold change >2.0 and P<0.05 were considered as differentially expressed. Heat-maps were constructed using the Gitools 2.1.1 software. Differentially expressed genes were functionally characterized using the Ingenuity Pathway Analysis version 57662101 (IPA, Qiagen) software.
In a clinical study from an ongoing randomized, placebo-controlled phase II trial in patients with non-muscle invasive bladder cancer (NMIBC), treatment with the tumor-killing peptide-lipid complex Alpha1-Hamlet, by instillations to the patients' bladders, has shown promising therapeutic effects. Tumor tissue samples of patients (obtained post-treatment at visit number 6) were analyzed.

adiponectin = assay: Adiponectin-ELISA of urine samples; format: in vivo, human; settings: treated patients vs placebo, P<0.001
Procedure: To investigate levels of adiponectin protein in the urine samples of patients, an Adiponectin-ELISA test (Proteintech) was performed. The signal (absorbance) values were measured at 480 nm and interpolated to concentration (pg/mL) values using a linear regression statistical analysis. […] Graph showing urine adiponectin levels in both groups, with samples taken pre Visit 1, post Visit 1, Post Visit 3 and Post Visit 6. Line show change in median urine adiponectin levels (FIG. 4). There was statistically significant positive correlation between number of cells (shed) in urine samples and measure adiponectin levels (P=0,002), using linear regression (FIG. 4). Statistical analysis was done in GraphPad Prism.

NMIBC = assay: Overall tumor response in patients with NMIBC (clinical and molecular end points); format: in vivo, human
Description: Selecting relevant treatment end points is especially challenging for conditions where cure is elusive. New molecular tools may offer increased resolution of the disease response, to complement clinical observation and understand the potential of new drug candidates. This study used a combination of clinical and molecular tools to define the tumor response to alpha1-oleate in patients with NMIBC. In addition to the evaluation of the change in tumor size, the tumor response was defined by the shedding of tumor cells and fragments into the urine, by the uptake of alpha1-oleate by the tumor and by evidence of tumor cell specific apoptosis. Gene expression analysis of tumor RNA further identified interesting differences between the groups defined as CR, PR and NR by visual inspection.
After diagnosis and informed consent, the subjects received intra-vesical instillations of either alpha1-oleate or placebo on six occasions during one month preceding a scheduled transurethral resection (TURB). A safety follow-up was performed 52 days after the first instillation.

[3] = tested on: cancer related genes in bladder tumors; assay: Gene expression analysis (RNA sequencing) of tumors; format: in vivo, human; settings: log FC≤−0.10; individual tumors
tumor cells = settings: cited from earlier work
skin papillomas = settings: topical application; cited from earlier work
bladder cancer cells = settings: local instillations; cited from earlier work

In the case of “alpha1-oleate: tumor-killing peptide-lipid complex of the synthetic alpha1 peptide (aa 1-39 of human alpha-lactalbumin) and oleate”, the “tumor response by histopathology” value [1] is reported as “Significant changes”, the “cell numbers in urine post instillation” value (bladder tumor cells; at each visit compared to each pre-instillation sample) is reported as “highly significant increase” and the cell shedding (bladder tumor cells; first urine sample post instillation (≤2 hours)) is reported as “detected in all patients”. For the same molecule, the “TUNEL staining (double strand DNA breaks)” value (shed bladder tumor cells) was “marked increase”, the “ADIPOQ gene expression FC” value ([2]; 8.5 mM treated patients compared to placebo treated patients, tumor tissue post-treatment at visit 6) was −5353.7 and the “number of genes regulated (heat map analysis)” value ([2]; RNA from tumor tissue obtained at TURB) was “over 3500”. The “PRAME log FC” value ([2]; all treated tumors) was at most −10, the “PTPRT log FC” value ([2]; all treated tumors) was at most −10 and the EGR3 expression ([2]; in vivo) was “strongly downregulated”. The “bladder cancer related genes” value ([2]; in vivo) was “strongly inhibited”, the “tumor microenvironment pathway genes (VEGFD, TGFB2, TGFB3, FGF1, FGF5, FGF7, FGF10, IGF1)” value ([2]; in vivo) was “downregulated” and the “ADIPOQ dependent molecules downregulated” value ([2]; network analysis) was 66. The “ADIPOQ dependent molecules strongly regulated” value ([2]; network analysis) was 78, the “ADIPOQ dependent molecules upregulated” value ([2]; network analysis) was 12 and the “inhibited genes that were bladder cancer related” value ([2]; of the 297 inhibited genes) was 31/297. The “innate immune response genes” value ([2]; pathway analysis, cytokine storm signaling and G protein coupled receptor signaling) was “strongly down-regulated”, the urine adiponectin levels (adiponectin) was “significantly higher” and the “responders by tumor cell shedding, apoptosis and inhibition of cancer related genes” value (NMIBC) was “all patients in this study were definable as responders”. The “number of genes strongly down-regulated in all treated tumors” value [3] was 297.

B1: BAMLET: complex made by mixing bovine alpha-lactalbumin with oleic acid (protein, UniProt P00711 20-142, looked up)
Alpha-lactalbumin: EQLTKCEVFRELKDLKGYGGVSLPEWVCTTFHTSGYDTQAIVQNNDSTEYGLFQINNKIWCKDDQNPHSSNICNISCDKFLDDDLTDDIMCVKKILDKVGINYWLAHKALCSEKLDQWLCEKL
modifications: oleic acid complex
For B1, the “effects on tumour cells compared with HAMLET” value (tumor cells; Rammer et al. (2010)) is listed as “qualitatively similar effects”.

B2: HAMLET: human alpha-lactalbumin made lethal to tumor cells; complex of partially unfolded α-lactalbumin and oleic acid (protein, UniProt P00709 20-142, looked up)
Alpha-lactalbumin: KQFTKCELSQLLKDIDGYGGIALPELICTMFHTSGYDTQAIVENNESTEYGLFQISNKLWCKSSQVPQSRNICDISCDKFLDDDITDDIMCAKKILDIKGIDYWLAHKALCTEKLEQWLCEKL
modifications: oleic acid complex
For B2, the “tumoricidal activity in vitro” value (tumor cells) is listed as “kills many types of tumor cells”, the “effect on skin papillomas” value (skin papillomas) is listed as “removed or reduced skin papillomas” and the “effect on bladder cancer cells” value (bladder cancer cells) is listed as “killed bladder cancer cells but not healthy cells in surrounding tissues”. The “effect on tumor size” value (bladder cancer cells) was “caused a reduction in tumor size”.
